Measured values from patent US20230393140A1, “BINDING ASSAYS INVOLVING A PLURALITY OF SYNTHETIC COMPOUNDS, TARGETS, AND COUNTER TARGETS” (SRI International, priority 2020, published 2023).
Where two headings read alike, the source gives them in different places. Numbered stars: 1 amine (or outer) side, 2 acyl side, 3 side chain; on linkers, the order of the positions; unused ones are H or OH. Square brackets hold non-standard residues; d marks the D form. Peptide text beside a SMILES is read from it. * marks the point of attachment. 5FAM = O=C1OC2(c3ccc(O)cc3Oc3cc(O)ccc32)c2ccc(C(=O)*)cc21; NHCH2C6H4(4-CH2CONH2) = NC(=O)Cc1ccc(CN*)cc1; X1 = O=C(Cc1ccc(CN[*:1])cc1)[*:2]

Biological target: T1, IL-6R (Homo sapiens, UniProt P08887)
T1 construct: purchased Creative Biomart IL6R-584H
T1 sequence (P08887 20-355 limits assumed): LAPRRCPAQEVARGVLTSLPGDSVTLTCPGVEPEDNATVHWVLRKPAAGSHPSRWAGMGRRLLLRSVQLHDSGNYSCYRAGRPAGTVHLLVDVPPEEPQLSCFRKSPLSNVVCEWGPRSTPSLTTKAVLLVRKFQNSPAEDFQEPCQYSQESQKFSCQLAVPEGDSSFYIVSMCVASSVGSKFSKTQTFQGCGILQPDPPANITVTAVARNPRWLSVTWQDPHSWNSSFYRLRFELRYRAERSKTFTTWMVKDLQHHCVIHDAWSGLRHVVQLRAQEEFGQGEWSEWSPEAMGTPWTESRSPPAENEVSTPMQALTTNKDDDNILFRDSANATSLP
Experiment: MST binding affinity of resynthesized NNP hits to IL-6R
Description: Hit binding affinity to various targets were determined using Microscale Thermophoresis (MST). MST experiments were performed on a Monolith NT.115pico (NanoTemper Technologies GmbH, Munich, Germany). Measurements were performed at room temperature, in triplicate with incubation periods of 15, 30 and 45 minutes. […] Targets were labeled using Nanotemper Monolith 2nd Generation Protein Labeling Kits. RED-MALEIMIDE (Maleimide-647-dye) labeling kit was used for K-Ras and RED-NHS (NHS-647-dye) labeling kit was used for IL-6, IL-6R, TNFα and ASGPR. The buffer for the ASGPR contained 20 mM HEPES pH 7.4, 150 mM NaCl, 10 mM MgCl2, 2 mM CaCl2, 0.05% Pluronic F-127, and 1 mM DTT; for IL-6 contained 20 mM HEPES pH 7.4, 150 mM KCl, 10 mM MgCl2, and 0.1% Pluronic F-127; for the soluble IL-6 receptor 20 mM HEPES pH 7.4, 150 mM NaCl, 10 mM MgCl2, and 0.05% Tween-20; for K-Ras 20 mM HEPES pH 7.4, 150 mM NaCl, 10 mM MgCl2, 0.05% Tween-20 and 1 mM DTT; for TNFα 10 mM HEPES pH 7.4, 150 mM NaCl, 10 mM MgCl2, 0.05% Polysorbate-20. Triplicate data was analyzed using MO.AffinityAnalysis software (NanoTemper Technologies GmbH).

[1] = MST, NNP2 library hit, target SIL-6R, one-site binding model

Compound	Kd [1]	other results
CC(C)C[C@H](NC(=O)[C@@H](CCCNC(=N)N)NC(=O)[C@@H](C)NC(=O)Cc1ccc(CNC(=O)[C@H](CC(C)C)NC(=O)[C@@H](CCCNC(=N)N)NC(=O)[C@@H](CCC(=O)O)NC(=O)Cc2ccc(CNC(=O)[C@@H](NC(=O)[C@@H](C)NC(=O)CNC(=O)Cc3ccc(CNC(=O)[C@@H](NC(=O)[C@@H](CCCNC(=N)N)NC(=O)[C@H]4CCCN4C(=O)Cc4ccc(CNC(=O)[C@H](CC(C)C)NC(=O)[C@H](NC(=O)[C@@H](CC(N)=O)NC(=O)Cc5ccc(CNC(=O)[C@H](CC(C)C)NC(=O)[C@@H](CCCNC(=N)N)NC(=O)[C@@H](CC(C)C)NC(=O)Cc6ccc(CNC(=O)[C@H](Cc7ccccc7)NC(=O)[C@@H](Cc7c[nH]c8ccccc78)NC(=O)[C@@H](CCCNC(=N)N)NC(=O)c7ccc8c(c7)C(=O)OC87c8ccc(O)cc8Oc8cc(O)ccc87)cc6)cc5)[C@H](C)O)cc4)C(C)C)cc3)C(C)C)cc2)cc1)C(=O)NCc1ccc(CC(=O)N2CCC[C@@H]2C(=O)N[C@H](CCCNC(=N)N)C(=O)N[C@@H](C)C(=O)NCc2ccc(CC(=O)N[C@H](Cc3ccccc3)C(=O)N[C@H](CCCNC(=N)N)C(=O)NCC(=O)NCc3ccc(CC(N)=O)cc3)cc2)cc1 [IL6R-87-5, Fluorescein-(D)Arg-(D)Trp-(L)Phe-PAM-(D)Leu-(D)Arg-(L)Leu-PAM-(D)Asn-(D)Thr-(L)Leu-PAM-(D)Pro-(D)Arg-(L)Val-PAM-Gly-(D)Ala-(L)Val-PAM-(D)Glu-(D)Arg-(L)Leu-PAM-(D)Ala-(D)Arg-(L)Leu- PAM-(D)Pro-(D)Arg-(L)Ala-PAM-(D)Phe-(D)Arg-Gly-PAM] (5FAM-[dR][dW]F[X1][dL][dR]L[X1][dN][dT]L[X1][dP][dR]V[X1]G[dA]V[X1][dE][dR]L[X1][dA][dR]L[X1][dP][dR]A[X1][dF][dR]G-{NHCH2C6H4(4-CH2CONH2)})	330 nM	
CC(C)C[C@H](NC(=O)[C@@H](CCCNC(=N)N)NC(=O)[C@@H](C)NC(=O)Cc1ccc(CNC(=O)[C@H](Cc2ccccc2)NC(=O)[C@@H](CCC(=O)O)NC(=O)[C@H]2CCCN2C(=O)Cc2ccc(CNC(=O)[C@H](Cc3ccccc3)NC(=O)[C@@H](CCCCN)NC(=O)[C@@H](C)NC(=O)Cc3ccc(CNC(=O)[C@H](CC(C)C)NC(=O)[C@@H](CCCNC(=N)N)NC(=O)[C@@H](Cc4c[nH]c5ccccc45)NC(=O)Cc4ccc(CNC(=O)[C@H](C)NC(=O)[C@@H](CCCCN)NC(=O)[C@H]5CCCN5C(=O)Cc5ccc(CNC(=O)[C@@H](NC(=O)[C@@H](CC(N)=O)NC(=O)[C@H]6CCCN6C(=O)Cc6ccc(CNC(=O)[C@H](Cc7ccccc7)NC(=O)[C@@H](Cc7c[nH]c8ccccc78)NC(=O)[C@@H](CCCNC(=N)N)NC(=O)c7ccc8c(c7)C(=O)OC87c8ccc(O)cc8Oc8cc(O)ccc87)cc6)C(C)C)cc5)cc4)cc3)cc2)cc1)C(=O)NCc1ccc(CC(=O)N[C@H](Cc2c[nH]c3ccccc23)C(=O)N[C@H](CCCCN)C(=O)N[C@@H](CC(C)C)C(=O)NCc2ccc(CC(=O)N[C@H](Cc3ccccc3)C(=O)N[C@H](CCCCN)C(=O)NCC(=O)NCc3ccc(CC(N)=O)cc3)cc2)cc1 [IL6R-87-6, Fluorescein-(D)Arg-(D)Trp-(L)Phe-PAM-(D)Pro-(D)Asn-(L)Val-PAM-(D)Pro-(D)Lys-(L)Ala-PAM-(D)Trp-(D)Arg-(L)Leu-PAM-(D)Ala-(D)Lys-(L)Phe-PAM-(D)Pro-(D)Glu-(L)Phe-PAM-(D)Ala-(D)Arg- (L)Leu-PAM-(D)Trp-(D)Lys-(L)Leu-PAM-(D)Phe-(D)Lys-Gly-PAM] (5FAM-[dR][dW]F[X1][dP][dN]V[X1][dP][dK]A[X1][dW][dR]L[X1][dA][dK]F[X1][dP][dE]F[X1][dA][dR]L[X1][dW][dK]L[X1][dF][dK]G-{NHCH2C6H4(4-CH2CONH2)})	3.3 nM	
CC(C)C[C@H](NC(=O)[C@@H](CCCNC(=N)N)NC(=O)[C@@H](C)NC(=O)Cc1ccc(CNC(=O)[C@H](Cc2ccccc2)NC(=O)[C@@H](CCCNC(=N)N)NC(=O)[C@@H](CC(N)=O)NC(=O)Cc2ccc(CNC(=O)[C@H](Cc3ccccc3)NC(=O)[C@@H](CCCCN)NC(=O)[C@@H](C)NC(=O)Cc3ccc(CNC(=O)[C@H](CC(C)C)NC(=O)[C@@H](CCC(=O)O)NC(=O)[C@@H](CCCCN)NC(=O)Cc4ccc(CNC(=O)[C@@H](NC(=O)[C@@H](CCC(=O)O)NC(=O)[C@@H](Cc5ccccc5)NC(=O)Cc5ccc(CNC(=O)[C@H](CC(C)C)NC(=O)[C@@H](CCCNC(=N)N)NC(=O)[C@@H](CC(C)C)NC(=O)Cc6ccc(CNC(=O)[C@H](Cc7ccccc7)NC(=O)[C@@H](Cc7c[nH]c8ccccc78)NC(=O)[C@@H](CCCNC(=N)N)NC(=O)c7ccc8c(c7)C(=O)OC87c8ccc(O)cc8Oc8cc(O)ccc87)cc6)cc5)C(C)C)cc4)cc3)cc2)cc1)C(=O)NCc1ccc(CC(=O)N[C@H](Cc2c[nH]c3ccccc23)C(=O)N[C@H](CCCCN)C(=O)N[C@@H](CC(C)C)C(=O)NCc2ccc(CC(=O)N[C@H](C)C(=O)N[C@@H](C(=O)N[C@@H](CC(C)C)C(=O)NCc3ccc(CC(N)=O)cc3)C(C)C)cc2)cc1 [IL6R-87-10, Fluorescein-(D)Arg-(D)Trp-(L)Phe-PAM-(D)Leu-(D)Arg-(L)Leu-PAM-(D)Phe-(D)Glu-(L)Val-PAM-(D)Lys-(D)Glu-(L)Leu-PAM-(D)Ala-(D)Lys-(L)Phe-PAM-(D)Asn-(D)Arg-(L)Phe-PAM-(D)Ala-(D)Arg- (L)Leu-PAM-(D)Trp-(D)Lys-(L)Leu-PAM-(D)Ala-(D)Val-(L)Leu-PAM] (5FAM-[dR][dW]F[X1][dL][dR]L[X1][dF][dE]V[X1][dK][dE]L[X1][dA][dK]F[X1][dN][dR]F[X1][dA][dR]L[X1][dW][dK]L[X1][dA][dV]L-{NHCH2C6H4(4-CH2CONH2)})		Kd (IL-6R, ester versus amide amino acid-PAM bond polymers, library NNP2): 20 nM
CC(C)C[C@H](NC(=O)[C@@H](CCCNC(=N)N)NC(=O)[C@@H](C)NC(=O)Cc1ccc(COC(=O)[C@H](CC(C)C)NC(=O)[C@@H](CCCNC(=N)N)NC(=O)[C@@H](CCC(=O)O)NC(=O)Cc2ccc(COC(=O)[C@H](C)NC(=O)[C@@H](CCCCN)NC(=O)[C@@H](Cc3ccc(O)cc3)NC(=O)Cc3ccc(COC(=O)[C@H](C)NC(=O)[C@@H](CCCNC(=N)N)NC(=O)[C@@H](Cc4ccccc4)NC(=O)Cc4ccc(COC(=O)[C@H](Cc5ccccc5)NC(=O)[C@@H](CO)NC(=O)[C@@H](CCCNC(=N)N)NC(=O)Cc5ccc(COC(=O)[C@@H](NC(=O)[C@@H](CO)NC(=O)[C@@H](Cc6ccc(O)cc6)NC(=O)Cc6ccc(COC(=O)[C@H](Cc7ccccc7)NC(=O)[C@H](NC(=O)[C@@H](CC(N)=O)NC(=O)c7ccc8c(c7)C(=O)OC87c8ccc(O)cc8Oc8cc(O)ccc87)C(C)C)cc6)C(C)C)cc5)cc4)cc3)cc2)cc1)C(=O)OCc1ccc(CC(=O)N2CCC[C@@H]2C(=O)N[C@H](CCCNC(=N)N)C(=O)N[C@@H](C)C(=O)OCc2ccc(CC(=O)N[C@H](Cc3ccccc3)C(=O)N[C@H](CCCCN)C(=O)NCC(=O)OCc3ccc(CC(N)=O)cc3)cc2)cc1 [IL6R-93-12]		Kd (read-out: MST (microscale thermophoresis) KD (nM) [95% conf. int], IL-6R, ester versus amide amino acid-PAM bond polymers, library NNP2): 3.7 nM
